Test results published in article PMC10657444, “Design and evaluation of tadpole-like conformational antimicrobial peptides” (Communications Biology, 2023).
≈ marks a conversion by molar mass, not a printed value. Where “and” joins values, the source holds several entries; their conditions need not be identical. Equal entries are not always repeated. Where two headings read alike, the source gives them in different places. Non-standard residues stand in square brackets, D forms with d. Residues, ends and D or L forms follow the SMILES beside them.

Assays:
[1] = system: MRSA USA 300; test: Membrane permeability, SYTOX Green; assay type: cell-based, Staphylococcus aureus
Protocol: Fluorescent probe SYTOX^TM Green (Invitrogen/ Life Technologies, S7020) was used to analyze the effect of HT2 and RI-HT2 on membrane permeability of MRSA USA 300 and K. pneumoniae ATCC 700603 as described elsewhere. SYTOX^TM Green is a DNA binding dye that is fluorescent when bound to nucleic acids and only enters cells with compromised plasma membranes. MRSA USA 300 and K. pneumoniae ATCC 700603 were cultured in LB broth to mid log phase at 37 °C and washed with PBS and resuspended (OD595 ≈ 0.1) in the same buffer. SYTOX^TM Green was added into the cell suspension with a final concentration of 5 μM and being kept in dark for 20 min. 98 µL pre-treated cell suspension was transferred into wells of 96-well glass black plates. Then, 2 µL of compound or DMSO were added to initiate the reaction. The final concentrations of HT2 and RI-HT2 were 1 ×, 2 ×, 4 × and 8 × MIC. Fluorescence strength was measured with excitation/emission wavelength of 485/528 nm every 5 min for 60 min.

[2] = system: MRSA USA 300; assay type: cell-based, Staphylococcus aureus
Protocol: The stability of peptides in different media was assessed using the MIC assay described above. Here, the stability of HT2 and RI-HT2 in serum, salt, and different pH were analyzed using methods previously described with some modifications. For serum stability, a solution of 10% or 20% fetal bovine serum (FBS) was made by diluting fetal bovine serum with phosphate buffer saline (PBS). HT2 and RI-HT2 were added for a final concentration of 160 µg/mL of peptide in the FBS solution, and incubation 2 h. Suspension containing no peptide was considered the negative control. The MIC of HT2 and RI-HT2 against MRSA USA 300 and K. pneumoniae ATCC 700603 were measured. For the acid stability assays, the peptides were incubated with different pH values of PBS (pH = 5.5 or 6.4) at 37 °C. These peptide mixtures were then serially diluted in a 96-well plate for the evaluation of antimicrobial activity against bacterial strains. Similarly, for salt stability, the peptides were assessed for their antimicrobial activity against MRSA USA 300 and K. pneumoniae ATCC 700603 in the presence of 150 mM NaCl.

[3] = system: MRSA 3393; assay type: cell-based, Staphylococcus aureus; conditions: 3393
Excerpt: (§1) Bacteria were cultivated in Luria-Bertani (LB) broth.

[4] = system: MRSA ATCC 43300; assay type: cell-based, Staphylococcus aureus; conditions: ATCC 43300
Excerpt: as §1

[5] = system: MRSA USA 300; assay type: cell-based, Staphylococcus aureus; remark: listed apart in the source
Excerpt: as §1

[6] = system: K. pneumoniae ATCC 700603; test: Time-kill assay; assay type: cell-based, Klebsiella pneumoniae
Protocol: Time-kill assays were done in tubes (in 1.5 mL of LB) and antibiotics at the 1 ×, 2 ×, 4 × and 8 × MIC. Tubes were inoculated (5 × 10^6 CFU/mL) with MRSA USA 300 and K. pneumoniae ATCC 700603 and incubated at 37 °C under shaking. Serial dilutions of the cultures were plated at each desired time point (0, 1, 3, 6, and 24 h), using a multichannel pipette as follows: in line 1 of a 96-well plate, 100 µL of bacterial suspension was added, while 90 µL of 0.9% sterile saline per well was added to the other lines. At selected time points, 100 µL of bacterial suspension was transferred from the time-kill assay plate to the first line. The wells were further diluted 1 in 10 (0.9% saline) for the appropriate number of dilutions and 10 μL of each dilution was spotted in duplicate onto MH agar plates, then incubated overnight at 37°C. The colonies in each spot were counted and used to calculate the number of viable CFU/mL remaining in the original culture by considering the dilution factors.

[7] = system: MRSA USA 300; test: Scanning electron microscopy; assay type: cell-based, Staphylococcus aureus; conditions: 2 × MIC, 60 min
Protocol: Mid-log phase bacteria (MRSA USA 300 and K. pneumoniae ATCC 700603) grown in LB broth were adjusted to a density of 5 × 10^6 CFU/mL. […] All samples were centrifuged at 8000 rpm for 5 min, washed and then resuspended in PBS. Bacterial cells were fixed with 2.5% glutaraldehyde, and then incubated at 37°C on a glass slide for 20 min. Samples were dehydrated by passing through gradient ethanol (10%, 30%, 50%, 70%, 90%, and 100%) for 5 min at each concentration. Slides were dried with an automatic critical point drying instrument (Leica EM CPD300), and a small amount of gold was sputtered onto the samples using a sputter coater system to avoid charging in the microscope. Finally, the bacteria were visualized under a field-emission scanning electron microscopy (FESEM) device (Sirion 200).

How did the Fluorescence intensity ([1]; 2 × MIC, time 0 min) turn out when `CC[C@@H](C)[C@@H](NC(=O)[C@@H](Cc1ccccc1)NC(=O)[C@@H](Cc1ccccc1)NC(=O)[C@@H](Cc1ccccc1)NC(=O)[C@H](N)Cc1ccccc1)C(=O)N[C@H](CCCNC(=N)N)C(=O)N[C@H](CCCNC(=N)N)C(=O)N[C@H](CC(C)C)C(=O)N[C@H](Cc1ccccc1)C(=O)N[C@H](CCCNC(=N)N)C(N)=O` [RI-HT2] (H-[dF][dF][dF][dF][dI][dR][dR][dL][dF][dR]-NH2; N-terminus assumed) was run?
The Fluorescence intensity was 1131 and 1217 and 1235.

What about the Fluorescence intensity ([1]; 2 × MIC, time 5 min) of the same compound?
Its Fluorescence intensity is 20197 and 21230 and 20865.

What about the Fluorescence intensity ([1]; 2 × MIC, time 10 min) of the same compound?
The Fluorescence intensity was 25460 and 25912 and 25261.

What about the Fluorescence intensity ([1]; 2 × MIC, time 15 min) of the same compound?
Its Fluorescence intensity is 28346 and 28832 and 27920.

And the Fluorescence intensity ([1]; 2 × MIC, time 20 min)?
The Fluorescence intensity was 30460 and 31033 and 29642.

What about the Fluorescence intensity ([1]; 2 × MIC, time 25 min) of the same compound?
Its Fluorescence intensity is 31855 and 32475 and 30920.

And the Fluorescence intensity ([1]; 2 × MIC, time 30 min)?
The Fluorescence intensity was 32738 and 33363 and 31902.

And the Fluorescence intensity ([1]; 2 × MIC, time 35 min)?
The Fluorescence intensity was 33433 and 34141 and 32365.

And the Fluorescence intensity ([1]; 4 × MIC, time 0 min)?
The Fluorescence intensity was 1186 and 1404 and 1281.

What about the Fluorescence intensity ([1]; 4 × MIC, time 5 min) of the same compound?
Its Fluorescence intensity is 40226 and 40219 and 41612.

And the Fluorescence intensity ([1]; 4 × MIC, time 10 min)?
Its Fluorescence intensity is 48704 and 48472 and 50316.

And the Fluorescence intensity ([1]; 4 × MIC, time 15 min)?
Its Fluorescence intensity is 53321 and 53163 and 55112.

And the Fluorescence intensity ([1]; 4 × MIC, time 20 min)?
Its Fluorescence intensity is 56328 and 55931 and 58102.

What about the Fluorescence intensity ([1]; 4 × MIC, time 25 min) of the same compound?
The Fluorescence intensity was 58334 and 57993 and 60104.

What about the Fluorescence intensity ([1]; 4 × MIC, time 30 min) of the same compound?
Its Fluorescence intensity is 59686 and 59179 and 61418.

And the Fluorescence intensity ([1]; 4 × MIC, time 35 min)?
The Fluorescence intensity was 60470 and 60307 and 62172.

And the Fluorescence intensity ([1]; 8 × MIC, time 0 min)?
The Fluorescence intensity was 1486 and 1674 and 1277.

What about the Fluorescence intensity ([1]; 8 × MIC, time 5 min) of the same compound?
Its Fluorescence intensity is 46924 and 49356 and 49374.

What about the Fluorescence intensity ([1]; 8 × MIC, time 10 min) of the same compound?
The Fluorescence intensity was 54383 and 56666 and 56984.

What about the Fluorescence intensity ([1]; 8 × MIC, time 15 min) of the same compound?
Its Fluorescence intensity is 57832 and 59952 and 60652.

What about the Fluorescence intensity ([1]; 8 × MIC, time 20 min) of the same compound?
Its Fluorescence intensity is 59829 and 61957 and 62485.

And the Fluorescence intensity ([1]; 8 × MIC, time 25 min)?
Its Fluorescence intensity is 61022 and 63005 and 63531.

What about the Fluorescence intensity ([1]; 8 × MIC, time 30 min) of the same compound?
Its Fluorescence intensity is 61916 and 63588 and 64175.

What about the Fluorescence intensity ([1]; 8 × MIC, time 35 min) of the same compound?
Its Fluorescence intensity is 62425 and 64473 and 64696.

And the Fluorescence intensity ([1]; 8 × MIC, time 40 min)?
Its Fluorescence intensity is 62708.

What about the Fluorescence intensity ([1]; MIC, time 0 min) of the same compound?
The Fluorescence intensity was 1304 and 1201 and 1387.

What about the Fluorescence intensity ([1]; MIC, time 5 min) of the same compound?
Its Fluorescence intensity is 12522 and 12645 and 12185.

What about the Fluorescence intensity ([1]; MIC, time 10 min) of the same compound?
Its Fluorescence intensity is 14676 and 14962 and 14128.

What about the Fluorescence intensity ([1]; MIC, time 15 min) of the same compound?
Its Fluorescence intensity is 16119 and 16290 and 15431.

What about the Fluorescence intensity ([1]; MIC, time 20 min) of the same compound?
Its Fluorescence intensity is 16841 and 16805 and 16042.

And the Fluorescence intensity ([1]; MIC, time 25 min)?
Its Fluorescence intensity is 17216 and 17215 and 16315.

What about the Fluorescence intensity ([1]; MIC, time 30 min) of the same compound?
Its Fluorescence intensity is 17367 and 17359 and 16618.

What about the Fluorescence intensity ([1]; MIC, time 35 min) of the same compound?
The Fluorescence intensity was 17590 and 17525 and 16584.

What about the Fluorescence intensity ([1]; MIC, time 40 min) of the same compound?
The Fluorescence intensity was 17600 and 17633 and 16680.

And the “time to maximum SYTOX Green fluorescence intensity” value ([1]; different concentrations)?
Its value is at most 15 min.

What about the “MIC against MRSA USA 300” value ([2]; USA 300) of the same compound?
Its value is 3.13 µM (≈ 4.53 µg/mL).

What about the “MIC against MRSA USA 300” value ([2]; USA 300, pH 5.5) of the same compound?
The value was 3.13 µM (≈ 4.53 µg/mL).

What about the “MIC against MRSA USA 300” value ([2]; USA 300, pH 6.4) of the same compound?
The value was 3.13 µM (≈ 4.53 µg/mL).

What about the “MIC Gram+ MRSA 3393” value [3] of the same compound?
Its value is 3.13 µM (≈ 4.53 µg/mL).

And the “MIC Gram+ MRSA ATCC 43300” value [4]?
Its value is 3.13 µM (≈ 4.53 µg/mL).

And the “MIC Gram+ MRSA USA 300” value [5]?
Its value is 3.13 µM (≈ 4.53 µg/mL).

And the “viable count, time-kill” value ([6]; 2 × MIC, 0 h)?
The value was 12000000 CFU/mL and 16000000 CFU/mL and 14000000 CFU/mL.

What about the “viable count, time-kill” value ([6]; 2 × MIC, 1 h) of the same compound?
The value was 10000 CFU/mL and 17000 CFU/mL and 15000 CFU/mL.

What about the “viable count, time-kill” value ([6]; 2 × MIC, 3 h) of the same compound?
The value was 100 CFU/mL.

What about the “viable count, time-kill” value ([6]; 2 × MIC, 6 h) of the same compound?
The value was 220000 CFU/mL and 310000 CFU/mL and 270000 CFU/mL.

What about the “viable count, time-kill” value ([6]; 2 × MIC, 24 h) of the same compound?
The value was 1000000000000 CFU/mL and 1300000000000 CFU/mL.

And the “viable count, time-kill” value ([6]; 4 × MIC, 0 h)?
Its value is 12000000 CFU/mL and 16000000 CFU/mL and 14000000 CFU/mL.

What about the “viable count, time-kill” value ([6]; 4 × MIC, 1 h) of the same compound?
Its value is 2500 CFU/mL and 3500 CFU/mL and 3000 CFU/mL.

What about the “viable count, time-kill” value ([6]; 4 × MIC, 3 h) of the same compound?
Its value is 0 CFU/mL.

And the “viable count, time-kill” value ([6]; 4 × MIC, 6 h)?
Its value is 24000 CFU/mL and 32000 CFU/mL and 30000 CFU/mL.

What about the “viable count, time-kill” value ([6]; 4 × MIC, 24 h) of the same compound?
Its value is 3800000 CFU/mL and 3400000 CFU/mL.

And the “time to complete killing” value ([6]; 8 × MIC)?
Its value is 3 h.

And the “viable count, time-kill” value ([6]; 8 × MIC, 0 h)?
The value was 12000000 CFU/mL and 16000000 CFU/mL and 14000000 CFU/mL.

And the “viable count, time-kill” value ([6]; 8 × MIC, 1 h)?
Its value is 300 CFU/mL and 500 CFU/mL.

And the “viable count, time-kill” value ([6]; 8 × MIC, 3 h)?
Its value is 0 CFU/mL.

What about the “viable count, time-kill” value ([6]; 8 × MIC, 6 h) of the same compound?
Its value is 0 CFU/mL.

What about the “viable count, time-kill” value ([6]; 8 × MIC, 24 h) of the same compound?
The value was 0 CFU/mL.

And the “viable count, time-kill” value ([6]; MIC, 0 h)?
The value was 12000000 CFU/mL and 16000000 CFU/mL and 14000000 CFU/mL.

What about the “viable count, time-kill” value ([6]; MIC, 1 h) of the same compound?
Its value is 270000 CFU/mL and 230000 CFU/mL and 250000 CFU/mL.

What about the “viable count, time-kill” value ([6]; MIC, 3 h) of the same compound?
The value was 23000 CFU/mL and 16000 CFU/mL and 17000 CFU/mL.

And the “viable count, time-kill” value ([6]; MIC, 6 h)?
The value was 3400000 CFU/mL and 2800000 CFU/mL and 3800000 CFU/mL.

And the “viable count, time-kill” value ([6]; MIC, 24 h)?
The value was 1000000000000 CFU/mL and 1200000000000 CFU/mL and 1700000000000 CFU/mL.

And the “cell surface morphology by SEM (in words)” value [7]?
Its value is “rough, shrunken, wrinkled and partially damaged”.
